Results reported in the NIST ThermoML archive (doi:10.1016/j.jct.2007.05.008).

Experiment: mn = molality of the nth substance listed, in mol/kg
Conditions: 350 kPa, Liquid; for apparent molar heat capacity: Extra sensitive DSC

[I-].[K+] [potassium iodide] + O
Conditions	apparent molar heat capacity [J/K/mol]	mass density [kg/m3]
278.15 K, m1 = 0.0151	–	1001.67
278.15 K, m1 = 0.0299	–	1003.68
278.15 K, m1 = 0.0701	–	1008.43
278.15 K, m1 = 0.2001	–	1024.58
278.15 K, m1 = 0.5376	–	1064.35
278.15 K, m1 = 0.6957	–	1081.95
278.15 K, m1 = 1.001	–	1117.05
278.15 K, m1 = 2.5	–	1271.29
278.15 K, m1 = 4.636	–	1453.94
278.15 K, m1 = 5.479	–	1515.42
278.15 K, m1 = 7.501	–	1648.17
283.15 K, m1 = 0.0151	–	1001.47
283.15 K, m1 = 0.0299	–	1003.4
283.15 K, m1 = 0.0701	–	1008.17
283.15 K, m1 = 0.2001	–	1024.09
283.15 K, m1 = 0.5376	–	1063.61
283.15 K, m1 = 0.6957	–	1081.08
283.15 K, m1 = 1.001	–	1115.82
283.15 K, m1 = 2.5	–	1268.99
283.15 K, m1 = 4.636	–	1450.65
283.15 K, m1 = 5.479	–	1512.83
283.15 K, m1 = 7.501	–	1645.23
288.15 K, m1 = 0.0151	–	1000.88
288.15 K, m1 = 0.0299	–	1002.77
288.15 K, m1 = 0.0701	–	1007.55
288.15 K, m1 = 0.2001	–	1023.33
288.15 K, m1 = 0.5376	–	1062.62
288.15 K, m1 = 0.6957	–	1080.04
288.15 K, m1 = 1.001	–	1114.31
288.15 K, m1 = 2.5	–	1266.38
288.15 K, m1 = 4.636	–	1448.01
288.15 K, m1 = 5.479	–	1510.11
288.15 K, m1 = 7.501	–	1642.29
298.15 K, m1 = 0.0151	–	998.82
298.15 K, m1 = 0.0299	–	1000.63
298.15 K, m1 = 0.0701	–	1005.39
298.15 K, m1 = 0.2001	–	1021
298.15 K, m1 = 0.5376	–	1059.83
298.15 K, m1 = 0.6957	–	1077.25
298.15 K, m1 = 1.001	–	1110.96
298.15 K, m1 = 2.5	–	1261.31
298.15 K, m1 = 4.636	–	1441.32
298.15 K, m1 = 5.479	–	1503.36
298.15 K, m1 = 7.501	–	1635.01
303.15 K, m1 = 5.479	1.3	–
308.15 K, m1 = 0.0151	–	995.79
308.15 K, m1 = 0.0299	–	997.53
308.15 K, m1 = 0.0701	–	1002.28
308.15 K, m1 = 0.2001	–	1017.73
308.15 K, m1 = 0.5376	–	1056.13
308.15 K, m1 = 0.6957	–	1073.61
308.15 K, m1 = 1.001	–	1106.78
308.15 K, m1 = 2.5	–	1255.84
308.15 K, m1 = 4.001	0.4	–
308.15 K, m1 = 4.636	–	1434.16
308.15 K, m1 = 5.479	1.8	1495.89
308.15 K, m1 = 7.501	–	1626.88
313.15 K, m1 = 4.001	1.4	–
313.15 K, m1 = 5.479	1.7	–
318.15 K, m1 = 0.0151	–	991.94
318.15 K, m1 = 0.0299	–	993.68
318.15 K, m1 = 0.0701	–	998.38
318.15 K, m1 = 0.2001	–	1013.67
318.15 K, m1 = 0.5376	–	1051.77
318.15 K, m1 = 0.6957	–	1069.13
318.15 K, m1 = 1.001	–	1101.94
318.15 K, m1 = 2.5	–	1249.89
318.15 K, m1 = 4.001	1.9	–
318.15 K, m1 = 4.636	–	1426.64
318.15 K, m1 = 5.479	1.2	1488.09
318.15 K, m1 = 7.501	–	1618.36
323.15 K, m1 = 4.001	2	–
323.15 K, m1 = 5.479	0.4	–
328.15 K, m1 = 0.0151	–	987.43
328.15 K, m1 = 0.0299	–	989.17
328.15 K, m1 = 0.0701	–	993.85
328.15 K, m1 = 0.2001	–	1008.93
328.15 K, m1 = 0.5376	–	1046.78
328.15 K, m1 = 0.6957	–	1064
328.15 K, m1 = 1.001	–	1096.55
328.15 K, m1 = 2.5	–	1243.46
328.15 K, m1 = 4.001	1.7	–
328.15 K, m1 = 4.636	–	1418.83
328.15 K, m1 = 5.479	–	1479.85
328.15 K, m1 = 7.501	–	1609.25
333.15 K, m1 = 4.001	1.3	–
338.15 K, m1 = 0.0151	–	982.32
338.15 K, m1 = 0.0299	–	984.03
338.15 K, m1 = 0.0701	–	988.65
338.15 K, m1 = 0.2001	–	1003.58
338.15 K, m1 = 0.5376	–	1041.14
338.15 K, m1 = 0.6957	–	1058.16
338.15 K, m1 = 1.001	–	1090.66
338.15 K, m1 = 2.5	–	1236.58
338.15 K, m1 = 4.001	0.6	–
338.15 K, m1 = 4.636	–	1410.65
338.15 K, m1 = 5.479	–	1471.57
338.15 K, m1 = 7.501	–	1600.65
348.15 K, m1 = 0.0151	–	976.56
348.15 K, m1 = 0.0299	–	978.32
348.15 K, m1 = 0.0701	–	982.92
348.15 K, m1 = 0.2001	–	997.75
348.15 K, m1 = 0.5376	–	1035.02
348.15 K, m1 = 0.6957	–	1051.97
348.15 K, m1 = 1.001	–	1084.3
348.15 K, m1 = 2.5	–	1229.37
348.15 K, m1 = 4.636	–	1402.31
348.15 K, m1 = 5.479	–	1463.16
348.15 K, m1 = 7.501	–	1591.74
358.15 K, m1 = 0.0151	–	970.33
358.15 K, m1 = 0.0299	–	972.11
358.15 K, m1 = 0.0701	–	976.68
358.15 K, m1 = 0.2001	–	991.55
358.15 K, m1 = 0.5376	–	1028.65
358.15 K, m1 = 0.6957	–	1045.42
358.15 K, m1 = 1.001	–	1077.52
358.15 K, m1 = 2.5	–	1221.83
358.15 K, m1 = 4.636	–	1393.66
358.15 K, m1 = 5.479	–	1455.05
358.15 K, m1 = 7.501	–	1583.19
368.15 K, m1 = 0.0151	–	963.58
368.15 K, m1 = 0.0299	–	965.34
368.15 K, m1 = 0.0701	–	969.93
368.15 K, m1 = 0.2001	–	984.74
368.15 K, m1 = 0.5376	–	1021.81
368.15 K, m1 = 0.6957	–	1038.47
368.15 K, m1 = 1.001	–	1070.31
368.15 K, m1 = 2.5	–	1213.99
368.15 K, m1 = 4.636	–	1384.78
368.15 K, m1 = 5.479	–	1446.45
368.15 K, m1 = 7.501	–	1574.23
